Publication PMC9795544, “Identifying Novel Inhibitors for Hepatic Organic Anion Transporting Polypeptides by Machine Learning-Based Virtual Screening” (Journal of Chemical Information and Modeling, 2022)
Read-outs that look alike come from different tables or passages of the source.

How the values were obtained:
Assay type in all cases: cell-based
[1] = target: T1, OATP1B3 (Homo sapiens, UniProt Q9NPD5); experiment: Pyranine transport inhibition in A431 cells overexpressing OATP1B3; details: initial three-point screen (1, 10, 100 μM), category by concentration needed for 50% inhibition, pyranine 20 μM, 30 min, pH 5.5; for IC50: read-out: IC50 (μM) OATP1B3
T1 construct: expressed in transfected cells; host or cells: A431 cells
T1 sequence (Q9NPD5 1-702): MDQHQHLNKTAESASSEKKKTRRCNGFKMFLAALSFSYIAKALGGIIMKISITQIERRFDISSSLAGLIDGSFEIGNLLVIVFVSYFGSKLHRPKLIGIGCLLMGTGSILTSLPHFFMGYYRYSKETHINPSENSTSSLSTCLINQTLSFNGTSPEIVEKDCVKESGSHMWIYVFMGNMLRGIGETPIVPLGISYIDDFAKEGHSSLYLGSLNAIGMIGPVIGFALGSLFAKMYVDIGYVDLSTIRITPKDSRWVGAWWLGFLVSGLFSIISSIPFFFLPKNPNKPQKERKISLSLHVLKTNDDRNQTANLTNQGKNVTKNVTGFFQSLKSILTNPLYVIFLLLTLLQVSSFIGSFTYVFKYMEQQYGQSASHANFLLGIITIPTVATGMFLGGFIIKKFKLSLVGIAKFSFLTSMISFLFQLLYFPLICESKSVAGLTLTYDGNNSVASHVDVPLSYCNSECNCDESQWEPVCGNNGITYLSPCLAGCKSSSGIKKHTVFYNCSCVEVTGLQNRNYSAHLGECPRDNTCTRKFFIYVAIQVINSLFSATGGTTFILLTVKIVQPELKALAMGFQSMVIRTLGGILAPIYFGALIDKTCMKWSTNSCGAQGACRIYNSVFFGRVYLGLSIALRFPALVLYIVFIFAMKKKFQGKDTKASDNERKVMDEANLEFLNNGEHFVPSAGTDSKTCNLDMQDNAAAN
Procedure: (§1) A431 cells overexpressing OATP1B1, OATP1B3, or OATP2B1 or their mock transfected controls were generated previously[30] and maintained in Dulbecco’s modified Eagle medium (DMEM, Gibco, Thermofisher Scientific, Waltham, MA, US) supplemented with 10% fetal bovine serum, 2 mM L-glutamine, 100 units/mL penicillin, and 100 μg/mL streptomycin. Expression and function of OATPs in the cell lines were checked regularly.
(§2) Interaction with OATP1B1, OATP1B3, or OATP2B1 was tested in an indirect transport assay using pyranine (8-hydroxypyrene-1,3,6-trisulfonic acid trisodium salt, H1529, Sigma, Merck, Budapest, Hungary) as the test substrate[31],[32] A431 cells overexpressing OATP1B1, OATP1B3, or OATP2B1 or their mock transfected controls were seeded on 96-well plates in a density of 8 × 10^4 cells per well in 200 μL of cell culture medium 1 day prior to the transport measurements. […] The transport reaction was started by the addition of 50 μL of uptake buffer containing pyranine in a final concentration of 10 μM (OATP1B1) or 20 μM (OATP1B3 and OATP2B1), and the cells were further incubated at 37 °C for 15 min (OATP1B1 and OATP2B1) or 30 min (OATP1B3). The reaction was stopped by removing the supernatant. After repeated washing with ice-cold PBS, fluorescence was determined in an Enspire plate reader (PerkinElmer, Waltham, MA) with excitation/emission wavelengths of 460/510 nm. OATP-dependent transport was calculated by extracting fluorescence measured in mock transfected cells and normalized to the fluorescence signal obtained in the absence of the tested compounds (100%). Experiments were repeated in at least three biological replicates.

[2] = target: T2, OATP2B1 (Homo sapiens, UniProt O94956); experiment: Pyranine transport inhibition in A431 cells overexpressing OATP2B1; details: category by concentration needed for 50% inhibition, pyranine 20 μM, 15 min, pH 5.5
T2 construct: expressed in transfected cells; host or cells: A431 cells
T2 sequence (O94956 1-709): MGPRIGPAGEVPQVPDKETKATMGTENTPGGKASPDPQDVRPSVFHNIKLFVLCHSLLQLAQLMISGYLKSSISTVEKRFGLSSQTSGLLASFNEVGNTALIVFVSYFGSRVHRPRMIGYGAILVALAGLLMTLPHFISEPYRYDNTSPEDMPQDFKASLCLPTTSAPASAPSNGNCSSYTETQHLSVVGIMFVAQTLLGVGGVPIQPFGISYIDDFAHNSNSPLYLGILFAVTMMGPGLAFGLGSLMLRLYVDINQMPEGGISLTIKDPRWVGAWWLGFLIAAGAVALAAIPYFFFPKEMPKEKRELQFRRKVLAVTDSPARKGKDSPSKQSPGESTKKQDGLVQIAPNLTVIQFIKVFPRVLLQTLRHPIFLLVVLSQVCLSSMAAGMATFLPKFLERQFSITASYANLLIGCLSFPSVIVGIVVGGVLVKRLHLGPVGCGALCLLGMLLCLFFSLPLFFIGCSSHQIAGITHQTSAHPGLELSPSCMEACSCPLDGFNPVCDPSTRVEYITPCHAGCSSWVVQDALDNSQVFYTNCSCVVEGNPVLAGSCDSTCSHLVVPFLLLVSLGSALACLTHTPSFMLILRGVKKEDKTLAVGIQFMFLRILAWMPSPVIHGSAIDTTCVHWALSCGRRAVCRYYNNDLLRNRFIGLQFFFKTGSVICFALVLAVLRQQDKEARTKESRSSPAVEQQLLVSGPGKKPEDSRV
Procedure: as §1, §2

[3] = target: T3, OATP1B1 (Homo sapiens, UniProt Q9Y6L6); experiment: Pyranine transport inhibition in A431 cells overexpressing OATP1B1
T3 construct: expressed in transfected cells; host or cells: A431 cells
T3 sequence (Q9Y6L6 1-691): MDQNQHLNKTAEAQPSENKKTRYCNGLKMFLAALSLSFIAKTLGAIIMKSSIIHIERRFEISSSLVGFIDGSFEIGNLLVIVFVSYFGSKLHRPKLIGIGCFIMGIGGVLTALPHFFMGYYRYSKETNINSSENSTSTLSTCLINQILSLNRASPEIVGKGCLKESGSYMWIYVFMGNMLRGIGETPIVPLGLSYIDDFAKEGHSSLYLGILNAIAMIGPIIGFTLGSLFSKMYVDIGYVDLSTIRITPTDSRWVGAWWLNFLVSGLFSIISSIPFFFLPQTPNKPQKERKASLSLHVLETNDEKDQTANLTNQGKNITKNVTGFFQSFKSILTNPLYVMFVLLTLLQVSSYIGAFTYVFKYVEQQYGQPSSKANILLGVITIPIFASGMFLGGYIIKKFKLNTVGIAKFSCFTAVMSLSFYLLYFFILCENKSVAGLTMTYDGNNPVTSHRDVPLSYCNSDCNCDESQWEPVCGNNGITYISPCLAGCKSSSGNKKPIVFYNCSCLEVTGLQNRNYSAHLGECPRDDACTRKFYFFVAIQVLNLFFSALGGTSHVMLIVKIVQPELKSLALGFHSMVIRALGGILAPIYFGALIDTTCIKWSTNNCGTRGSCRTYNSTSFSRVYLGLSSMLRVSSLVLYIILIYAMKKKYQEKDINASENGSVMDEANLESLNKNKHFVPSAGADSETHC
Procedure: as §1, §2

[4] = initial three-point screen (1, 10, 100 μM), read-out: IC50 (μM) OATP2B1
[5] = initial three-point screen (1, 10, 100 μM), category by concentration needed for 50% inhibition, pyranine 10 μM, 15 min, pH 5.5, read-out: IC50 (μM) OATP1B1

IC50 (μM) OATP1B3 [1]	IC50 ([2]; IC50 (μM) OATP2B1, initial three-point screen (1, 10, 100 μM)) [µM]	IC50 [3] [µM]	IC50 [1] [µM]	IC50 [2, 4] [µM]	IC50 [3, 5] [µM]	SMILES
Activated	1 to 10	> 10	–	–	–	O=C(NCc1ccccn1)c1ccc2c(c1)S(=O)(=O)c1ccccc1C2=O [B5, O=C(NCc1ccccn1)c2ccc3C(=O)c4ccccc4S(=O)(=O)c3c2]
–	–	–	> 10	> 10	> 10	O=C(CSc1nc2cc(C(F)(F)F)ccc2n1Cc1ccccc1)c1ccc[nH]1 [B6, FC(F)(F)c1ccc2c(c1)nc(SCC(=O)c3ccc[nH]3)n2Cc4ccccc4]
–	–	–	–	1 to 10	1 to 10	Cc1cc(C)n2nc(SCc3ccccc3C(=O)NCCc3ccc4c(c3)OCCO4)nc2n1 [C2, Cc1cc(C)n2nc(SCc3ccccc3C(=O)NCCc4ccc5OCCOc5c4)nc2n1]
–	–	–	–	1 to 10	–	CC(OC(=O)c1cc(Cl)c2c(c1)OCCCO2)C(=O)c1ccc2c(c1)NC(=O)CO2 (stereo not drawn) [D4, CC(OC(=O)c1cc(Cl)c2OCCCOc2c1)C(=O)c3ccc4OCC(=O)Nc4c3]
–	–	–	> 10	–	> 10	O=C(OCC(=O)N(C1CCCCC1)C1CCCCC1)c1nn(-c2ccccc2)c(=O)c2ccccc12 [D5, O=C(COC(=O)C1=NN(C(=O)c2ccccc12)c3ccccc3)N(C4CCCCC4)C5CCCCC5]
–	–	–	–	1 to 10	> 10	O=C(CN1C(=O)NC2(CCCc3ccccc32)C1=O)Nc1nnc(C23CC4CC(CC(C4)C2)C3)s1 (stereo not drawn) [D6, O=C(CN1C(=O)NC2(CCCc3ccccc23)C1=O)Nc4nnc(s4)C56CC7CC(CC(C7)C5)C6]
–	–	–	> 10	1 to 10	–	O=C(Nc1ccccc1)c1ccccc1OCC(=O)N1CCN(C(=O)c2ccco2)CC1 [F2, O=C(COc1ccccc1C(=O)Nc2ccccc2)N3CCN(CC3)C(=O)c4occc4]
–	–	–	> 10	1 to 10	–	O=C(CCc1ncc(-c2c(F)cccc2F)o1)N1CCN(S(=O)(=O)c2ccccc2F)CC1 [G3, Fc1cccc(F)c1c2oc(CCC(=O)N3CCN(CC3)S(=O)(=O)c4ccccc4F)nc2]

SMILES	IC50 (μM) OATP1B3 [1]	IC50 ([2]; IC50 (μM) OATP2B1, initial three-point screen (1, 10, 100 μM)) [µM]	IC50 [3] [µM]	IC50 [1] [µM]	IC50 [2, 4] [µM]	IC50 [3, 5] [µM]
CC1CCN(c2nnc(SCC(=O)NCC3COc4ccccc4O3)n2C2CC2)CC1 (stereo not drawn) [E4, CC1CCN(CC1)c2nnc(SCC(=O)NCC3COc4ccccc4O3)n2C5CC5]	–	–	–	> 10	1 to 10	–
CC(OC(=O)C1CCN(S(=O)(=O)c2ccc3c(c2)OCCO3)CC1)C(=O)Nc1cccc(C#N)c1 (stereo not drawn) [H3, CC(OC(=O)C1CCN(CC1)S(=O)(=O)c2ccc3OCCOc3c2)C(=O)Nc4cccc(c4)C#N]	–	–	–	–	1 to 10	1 to 10
